Source: patent US20080207745A1, “Orally-absorbed formulation for paromomycin” (priority 2007, published 2008)
Where “and” joins values, the source holds several entries; their conditions need not be identical. Equal values may be shown once. Where a name gives a salt, the structure may show the parent alone. Read-outs that look alike come from different tables or passages of the source.

Tests used:
[1] = In vitro PAR transport across harvested intestinal segments, EasyMount Ussing System: colon; assay type: in vitro ADME; settings: rat, 5 mg/ml (~25 mg) paromomycin in mucosal chamber, tissue area 0.5 sq cm
Experimental: (§1) HEPES buffer was used as the base mucosal and serosal fluid. […] First 5 ml of HEPES buffer was added to each of the two chambers (mucosal and serosal) and allowed to equilibrate for 20 min. […] Aliquots of sample solution were removed from the chamber on other side of the mounted intestinal segment periodically and replaced with an equal volume of fresh warm HEPES buffer.
(§2) These additives, either alone or in combinations, were dissolved in HEPES buffer on percent weight/weight basis of the HEPES medium. Owing to the expected variation in the in-vitro conditions and harvested rat intestinal segments, four replicates were used per experimental condition.
(§3) The apparent permeability coefficients (Papp) were calculated according to:
(§4) Papp=(dQ/dt)/C0×A, where dQ/dt is the linear appearance rate of mass in receiver compartment, C0 is the initial solute concentration in donor compartment, and A is the surface area.
(§5) The drug in post column eluant was derivatized with Dinitrofluorobenzene (DNFB) and monitored at 360 nm. The run time was 30 minutes.

[2] = In vitro PAR transport across harvested intestinal segments, EasyMount Ussing System: duodenum; assay type: in vitro ADME; settings: rat, 5 mg/ml (~25 mg) paromomycin in mucosal chamber, tissue area 0.5 sq cm
Experimental: as §1, §2, §3, §4, §5

[3] = In vitro PAR transport across harvested intestinal segments, EasyMount Ussing System: jejunum; assay type: in vitro ADME; settings: rat; for Papp at 15 mg/ml: 15 mg/ml PAR
Experimental: HEPES buffer was used as the base mucosal and serosal fluid. […] First 5 ml of HEPES buffer was added to each of the two chambers (mucosal and serosal) and allowed to equilibrate for 20 min. […] Aliquots of sample solution were removed from the chamber on other side of the mounted intestinal segment periodically and replaced with an equal volume of fresh warm HEPES buffer. […] These additives, either alone or in combinations, were dissolved in HEPES buffer on percent weight/weight basis of the HEPES medium. Owing to the expected variation in the in-vitro conditions and harvested rat intestinal segments, four replicates were used per experimental condition. The apparent permeability coefficients (Papp) were calculated according to: Papp=(dQ/dt)/C0×A, where dQ/dt is the linear appearance rate of mass in receiver compartment, C0 is the initial solute concentration in donor compartment, and A is the surface area. […] The drug in post column eluant was derivatized with Dinitrofluorobenzene (DNFB) and monitored at 360 nm. The run time was 30 minutes.

[4] = historically considered (ref. 6); cited from earlier work
[5] = Paromomycin in vivo absorption (pharmacokinetic) studies in rats; design: species or system Male rats (Sprague Dawley)
Experimental: Paromomycin was extracted from plasma samples (100 μl volume) with phenylboronic acid solid phase extraction columns, and the bound drug was eluted from the columns with 1% (v/v) formic acid in water. The acid eluates were evaporated under vacuum, and then the dry residues were reconstituted in 100 μl of 1 mM heptafluorobutyric acid (HFBA) in water.

[6] = In vitro PAR transport across harvested intestinal segments, EasyMount Ussing System: ileum; assay type: in vitro ADME; settings: rat, 5 mg/ml (~25 mg) paromomycin in mucosal chamber, tissue area 0.5 sq cm
Experimental: as §1, §2, §3, §4, §5

[7] = male rats, i.v. 100 mg/kg, Group #1, individual rats, 100 mg/kg
[8] = male, Sprague Dawley, rat, plasma, iv, 100 mg/kg, i.v. 100 mg/kg, Group #1, Mean of 3 rats

Work on `NC[C@@H]1O[C@H](O[C@H]2[C@@H](O)[C@H](O[C@@H]3[C@@H](O)[C@H](N)C[C@H](N)[C@H]3O[C@H]3O[C@H](CO)[C@@H](O)[C@H](O)[C@H]3N)O[C@@H]2CO)[C@H](N)[C@@H](O)[C@@H]1O` [PAR, Paromomycin sulfate] yielded a Papp at […], 5 mg/ml [1] of 2.07 ×10⁻⁶ cm/s, a Papp at […], 5 mg/ml [2] of 1.94 ×10⁻⁶ cm/s and a Papp at 15 mg/ml ([3]; jejunum M-to-S, Sodium Decanoate in mucosal 0.2 mg/ml (equilibrated 20 min before drug)) of 1.48 ×10⁻⁶ cm/s. For the same compound, the Papp at 15 mg/ml ([3]; jejunum M-to-S, Sodium Decanoate in mucosal 0.5 mg/ml (equilibrated)) was 2.22 ×10⁻⁶ cm/s, the Papp at 15 mg/ml ([3]; jejunum M-to-S, Sodium Decanoate in mucosal 1 mg/ml (equilibrated)) was 4.4 ×10⁻⁶ cm/s and the Papp at 15 mg/ml ([3]; jejunum M-to-S, Sodium Decanoate in mucosal 1 mg/ml (not equilibrated)) was 3.83 ×10⁻⁶ cm/s. It also gave a Papp at 15 mg/ml ([3]; jejunum M-to-S, Sodium Decanoate in serosal 0.2 mg/ml (not equilibrated)) of 3.86 ×10⁻⁶ cm/s, a Papp at 15 mg/ml ([3]; jejunum M-to-S, Sodium Decanoate in serosal 0.5 mg/ml (not equilibrated)) of 3.54 ×10⁻⁶ cm/s and a Papp at 15 mg/ml ([3]; jejunum M-to-S, Sodium Decanoate in serosal 1.0 mg/ml (not equilibrated)) of 7.2 ×10⁻⁶ cm/s. For the same compound, the Papp at 15 mg/ml ([3]; jejunum M-to-S, no Quinidine, no Sodium Decanoate, tissue area 0.5 sq cm) was 2.63 ×10⁻⁶ cm/s, the Papp at 15 mg/ml ([3]; jejunum S-to-M, no Quinidine) was 2.75 ×10⁻⁶ cm/s and the Papp at […], 5 mg/ml ([3]; jejunum, 5 mg/ml (~25 mg) paromomycin in mucosal chamber, tissue area 0.5 sq cm) was 3.93 ×10⁻⁶ cm/s. For the same compound, the Papp at 15 mg/ml ([3]; with quinidine 0.05 mg/ml in mucosal chamber, jejunum M-to-S, 0.05 mg/ml Quinidine in mucosal) was 4.37 ×10⁻⁶ cm/s, the Papp at 15 mg/ml ([3]; with quinidine 0.05 mg/ml in mucosal chamber, jejunum S-to-M, 0.05 mg/ml Quinidine in mucosal) was 1.85 ×10⁻⁶ cm/s and the oral bioavailability [4] was “close to zero”. For the same compound, the t1/2 ([5]; male rats, i.v. 100 mg/kg in sterile saline, Group #1, individual rats, 100 mg/kg) was 2.70 h and 2.86 h, the V ([5]; male rats, i.v. 100 mg/kg, Group #1, Mean of 3 rats) was 5.40 L/kg and the AUC [5, 7] was 55465 ng·h/mL and 85847 ng·h/mL. For the same compound, the Cl [5, 7] was 30 mL/min/kg and 19.3 mL/min/kg, the Cmax [5, 7] was 95.651 µg/mL and 101.318 µg/mL and the V [5, 7] was 4.39 L/kg and 7.01 L/kg and 4.80 L/kg. The half-life ([5]; male, Sprague Dawley, rat, plasma, iv, 100 mg/kg, i.v. 100 mg/kg in sterile saline, Group #1, individual rats) was 2.85 h, the clearance [5, 8] was 22.3 mL/min/kg and the half-life [5, 8] was 2.8 h. For the same compound, the AUC ([5]; male, Sprague Dawley, rat, plasma, iv, 100 mg/kg, i.v. 100 mg/kg, Group #1, Mean of 3 rats, read-out: AUC) was 78300 ng·h/mL, the Cmax ([5]; male, Sprague Dawley, rat, plasma, iv, 100 mg/kg, i.v. 100 mg/kg, Group #1, Mean of 3 rats, read-out: Cmax) was 124 µg/mL and the clearance ([5]; male, Sprague Dawley, rat, plasma, iv, 100 mg/kg, i.v. 100 mg/kg, Group #1, individual rats) was 17.8 mL/min/kg. For the same compound, the AUC ([5]; male, Sprague Dawley, rat, plasma, iv, 100 mg/kg, i.v. 100 mg/kg, Group #1, individual rats, read-out: AUC) was 93500 ng·h/mL, the Cmax ([5]; male, Sprague Dawley, rat, plasma, iv, 100 mg/kg, i.v. 100 mg/kg, Group #1, individual rats, read-out: Cmax) was 174 µg/mL and the Papp at […], 5 mg/ml [6] was 2.22 ×10⁻⁶ cm/s.
